{"source": "ChEMBL document CHEMBL1149912", "about": "“Chemical fragments as foundations for understanding target space and activity prediction” (J Med Chem, 2008)", "key": {"[1]": {"molecular_target": "T1, Renin (Homo sapiens) (UniProt P00797)", "T1 sequence (whole entry)": "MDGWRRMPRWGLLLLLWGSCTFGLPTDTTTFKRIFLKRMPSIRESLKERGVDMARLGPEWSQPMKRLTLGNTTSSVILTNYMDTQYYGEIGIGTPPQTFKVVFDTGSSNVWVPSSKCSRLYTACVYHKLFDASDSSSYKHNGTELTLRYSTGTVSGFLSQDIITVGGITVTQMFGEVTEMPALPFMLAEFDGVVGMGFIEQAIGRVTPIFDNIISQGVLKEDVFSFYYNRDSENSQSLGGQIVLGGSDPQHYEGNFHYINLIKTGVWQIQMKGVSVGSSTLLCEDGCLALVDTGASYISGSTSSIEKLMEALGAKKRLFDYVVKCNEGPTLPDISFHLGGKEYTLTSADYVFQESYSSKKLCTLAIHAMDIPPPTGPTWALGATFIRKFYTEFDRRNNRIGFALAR", "experiment": "Inhibition of REN"}, "[2]": {"molecular_target": "Neprilysin (Homo sapiens) (UniProt P08473)", "sequence (P08473 whole entry)": "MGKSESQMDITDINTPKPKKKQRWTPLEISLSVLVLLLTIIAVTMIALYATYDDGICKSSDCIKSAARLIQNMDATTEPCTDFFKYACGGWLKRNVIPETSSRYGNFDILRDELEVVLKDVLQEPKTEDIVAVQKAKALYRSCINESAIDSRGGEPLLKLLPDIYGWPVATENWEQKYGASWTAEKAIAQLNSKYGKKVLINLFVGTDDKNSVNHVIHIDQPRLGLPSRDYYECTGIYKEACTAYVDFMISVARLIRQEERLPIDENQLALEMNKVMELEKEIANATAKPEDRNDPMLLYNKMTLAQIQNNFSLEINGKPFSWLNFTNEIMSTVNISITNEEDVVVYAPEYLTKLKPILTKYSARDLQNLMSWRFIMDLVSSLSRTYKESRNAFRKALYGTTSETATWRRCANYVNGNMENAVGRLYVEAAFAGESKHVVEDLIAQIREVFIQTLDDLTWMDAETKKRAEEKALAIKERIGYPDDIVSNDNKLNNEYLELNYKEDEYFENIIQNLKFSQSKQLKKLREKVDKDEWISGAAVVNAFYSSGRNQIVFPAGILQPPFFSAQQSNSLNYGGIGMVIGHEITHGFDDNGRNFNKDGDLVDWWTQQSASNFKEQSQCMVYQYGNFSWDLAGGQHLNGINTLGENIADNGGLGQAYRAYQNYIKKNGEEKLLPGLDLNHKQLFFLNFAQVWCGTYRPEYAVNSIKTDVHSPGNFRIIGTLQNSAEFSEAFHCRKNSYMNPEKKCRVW", "experiment": "Inhibition of MME"}, "[3]": {"system": "NMDA receptor subunit 1, GRIN1", "experiment": "Inhibition of GRIN1"}, "[4]": {"molecular_target": "T2, Cholecystokinin receptor type A (Homo sapiens) (UniProt P32238)", "T2 sequence (whole entry)": "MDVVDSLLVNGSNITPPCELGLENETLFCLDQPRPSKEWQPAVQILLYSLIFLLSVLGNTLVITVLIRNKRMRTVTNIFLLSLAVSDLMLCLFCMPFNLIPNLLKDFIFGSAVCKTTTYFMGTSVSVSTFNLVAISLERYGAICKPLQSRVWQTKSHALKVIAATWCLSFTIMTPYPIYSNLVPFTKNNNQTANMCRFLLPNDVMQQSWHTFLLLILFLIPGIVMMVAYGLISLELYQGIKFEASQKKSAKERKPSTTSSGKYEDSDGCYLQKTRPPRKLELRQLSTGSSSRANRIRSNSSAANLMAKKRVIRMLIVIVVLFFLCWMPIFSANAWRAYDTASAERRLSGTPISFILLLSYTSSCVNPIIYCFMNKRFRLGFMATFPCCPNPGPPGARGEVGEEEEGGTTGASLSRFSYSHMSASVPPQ", "experiment": "Inhibition of CCKAR"}, "[5]": {"molecular_target": "Voltage-dependent N-type calcium channel subunit alpha-1B (Homo sapiens) (UniProt Q00975)", "sequence (Q00975 whole entry, looked up)": "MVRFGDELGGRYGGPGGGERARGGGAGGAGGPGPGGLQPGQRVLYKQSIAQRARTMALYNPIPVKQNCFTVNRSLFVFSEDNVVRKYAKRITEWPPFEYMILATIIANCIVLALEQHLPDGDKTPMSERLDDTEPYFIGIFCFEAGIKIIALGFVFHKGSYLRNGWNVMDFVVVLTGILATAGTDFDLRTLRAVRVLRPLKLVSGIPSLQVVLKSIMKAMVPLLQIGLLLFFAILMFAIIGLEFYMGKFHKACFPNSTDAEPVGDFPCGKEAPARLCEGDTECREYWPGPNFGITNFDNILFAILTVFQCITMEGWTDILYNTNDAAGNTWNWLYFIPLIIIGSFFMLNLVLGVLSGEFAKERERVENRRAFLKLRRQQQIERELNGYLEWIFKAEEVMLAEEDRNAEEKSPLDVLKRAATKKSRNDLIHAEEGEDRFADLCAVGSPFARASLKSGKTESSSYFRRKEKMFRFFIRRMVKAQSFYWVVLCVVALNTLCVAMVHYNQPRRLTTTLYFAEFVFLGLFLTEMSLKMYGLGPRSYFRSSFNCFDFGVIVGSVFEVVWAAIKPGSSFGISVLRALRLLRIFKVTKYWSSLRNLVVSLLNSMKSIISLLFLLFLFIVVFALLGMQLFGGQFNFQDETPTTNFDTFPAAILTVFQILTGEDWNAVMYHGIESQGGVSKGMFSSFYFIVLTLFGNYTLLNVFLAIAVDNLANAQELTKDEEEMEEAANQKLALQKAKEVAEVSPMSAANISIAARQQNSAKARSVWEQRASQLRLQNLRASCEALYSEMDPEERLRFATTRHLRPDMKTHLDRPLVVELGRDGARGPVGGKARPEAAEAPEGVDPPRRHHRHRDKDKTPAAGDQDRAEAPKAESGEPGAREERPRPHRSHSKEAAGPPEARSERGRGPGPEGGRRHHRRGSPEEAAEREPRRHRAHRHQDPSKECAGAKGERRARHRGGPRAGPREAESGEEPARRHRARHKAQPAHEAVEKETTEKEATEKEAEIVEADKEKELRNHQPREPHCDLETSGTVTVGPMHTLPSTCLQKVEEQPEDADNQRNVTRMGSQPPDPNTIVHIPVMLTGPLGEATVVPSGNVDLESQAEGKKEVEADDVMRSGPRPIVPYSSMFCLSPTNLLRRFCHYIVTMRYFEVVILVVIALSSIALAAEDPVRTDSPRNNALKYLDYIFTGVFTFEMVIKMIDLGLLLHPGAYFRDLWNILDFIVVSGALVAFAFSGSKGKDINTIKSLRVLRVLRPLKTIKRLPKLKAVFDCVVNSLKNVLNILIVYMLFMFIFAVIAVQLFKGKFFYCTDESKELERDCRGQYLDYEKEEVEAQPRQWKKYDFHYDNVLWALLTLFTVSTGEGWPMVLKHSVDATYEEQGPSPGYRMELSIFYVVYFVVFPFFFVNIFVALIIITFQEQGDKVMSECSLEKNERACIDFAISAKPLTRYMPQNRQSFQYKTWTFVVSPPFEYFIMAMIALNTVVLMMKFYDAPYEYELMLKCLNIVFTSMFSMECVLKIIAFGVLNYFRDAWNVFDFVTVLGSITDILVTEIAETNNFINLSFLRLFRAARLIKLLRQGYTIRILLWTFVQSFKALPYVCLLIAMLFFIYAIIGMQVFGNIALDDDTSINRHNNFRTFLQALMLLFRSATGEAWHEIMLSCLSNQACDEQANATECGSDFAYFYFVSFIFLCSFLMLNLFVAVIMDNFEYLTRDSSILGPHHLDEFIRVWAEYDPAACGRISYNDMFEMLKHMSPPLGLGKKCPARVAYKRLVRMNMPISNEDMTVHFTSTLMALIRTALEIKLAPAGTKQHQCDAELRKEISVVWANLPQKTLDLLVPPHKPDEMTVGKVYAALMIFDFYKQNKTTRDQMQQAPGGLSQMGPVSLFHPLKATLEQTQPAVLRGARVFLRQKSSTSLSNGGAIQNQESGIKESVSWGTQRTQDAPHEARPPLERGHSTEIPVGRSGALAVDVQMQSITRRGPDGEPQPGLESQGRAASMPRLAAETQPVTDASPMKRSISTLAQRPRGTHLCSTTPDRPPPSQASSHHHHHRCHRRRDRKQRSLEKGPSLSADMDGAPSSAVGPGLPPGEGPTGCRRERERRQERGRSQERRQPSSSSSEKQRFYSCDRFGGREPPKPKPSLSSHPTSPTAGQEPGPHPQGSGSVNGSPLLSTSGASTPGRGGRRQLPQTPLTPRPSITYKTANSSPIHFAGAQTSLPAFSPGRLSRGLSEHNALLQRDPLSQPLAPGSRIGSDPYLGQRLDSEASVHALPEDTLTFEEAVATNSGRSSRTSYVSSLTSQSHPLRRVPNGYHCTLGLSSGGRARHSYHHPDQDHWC", "experiment": "Inhibition of CACNA1B"}, "[6]": {"molecular_target": "Prothrombin (Homo sapiens) (UniProt P00734)", "experiment": "Inhibition of thrombin"}, "[7]": {"molecular_target": "T3, Prostaglandin D2 receptor 2 (Homo sapiens) (UniProt Q9Y5Y4)", "T3 sequence (whole entry)": "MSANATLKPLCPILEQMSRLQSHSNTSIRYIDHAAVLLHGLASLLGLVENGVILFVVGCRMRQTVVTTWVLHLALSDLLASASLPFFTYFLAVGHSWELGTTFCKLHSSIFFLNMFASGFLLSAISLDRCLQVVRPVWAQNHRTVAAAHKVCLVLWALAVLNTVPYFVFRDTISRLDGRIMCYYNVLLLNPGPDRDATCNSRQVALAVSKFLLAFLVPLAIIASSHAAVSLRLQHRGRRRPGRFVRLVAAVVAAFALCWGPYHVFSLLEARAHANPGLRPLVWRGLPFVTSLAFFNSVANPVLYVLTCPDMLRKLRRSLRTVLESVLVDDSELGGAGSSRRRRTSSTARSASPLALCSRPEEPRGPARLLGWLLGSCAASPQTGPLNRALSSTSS", "experiment": "Inhibition of GPR44"}, "[8]": {"molecular_target": "Sodium-dependent dopamine transporter (Homo sapiens) (UniProt Q01959)", "experiment": "Inhibition of SLC6A3"}, "[9]": {"molecular_target": "Mitogen-activated protein kinase 14 (Homo sapiens) (UniProt Q16539)", "sequence (Q16539 whole entry)": "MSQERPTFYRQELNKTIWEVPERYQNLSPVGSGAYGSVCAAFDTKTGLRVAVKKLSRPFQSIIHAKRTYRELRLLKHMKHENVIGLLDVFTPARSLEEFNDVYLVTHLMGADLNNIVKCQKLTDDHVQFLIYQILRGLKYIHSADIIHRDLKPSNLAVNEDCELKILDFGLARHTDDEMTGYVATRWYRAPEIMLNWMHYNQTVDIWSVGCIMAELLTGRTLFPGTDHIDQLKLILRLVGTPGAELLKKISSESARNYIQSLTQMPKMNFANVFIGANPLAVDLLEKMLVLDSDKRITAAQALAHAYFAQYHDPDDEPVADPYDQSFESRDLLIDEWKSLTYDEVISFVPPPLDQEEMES", "experiment": "Inhibition of MAPK14"}, "[10]": {"molecular_target": "Aldo-keto reductase family 1 member B1 (Homo sapiens) (UniProt P15121)", "experiment": "Inhibition of AKR1B1"}, "[11]": {"molecular_target": "Kappa-type opioid receptor (Homo sapiens) (UniProt P41145)", "experiment": "Inhibition of OPRK1"}, "[12]": {"molecular_target": "Leukotriene B4 receptor 1 (Homo sapiens) (UniProt Q15722)", "sequence (Q15722 whole entry)": "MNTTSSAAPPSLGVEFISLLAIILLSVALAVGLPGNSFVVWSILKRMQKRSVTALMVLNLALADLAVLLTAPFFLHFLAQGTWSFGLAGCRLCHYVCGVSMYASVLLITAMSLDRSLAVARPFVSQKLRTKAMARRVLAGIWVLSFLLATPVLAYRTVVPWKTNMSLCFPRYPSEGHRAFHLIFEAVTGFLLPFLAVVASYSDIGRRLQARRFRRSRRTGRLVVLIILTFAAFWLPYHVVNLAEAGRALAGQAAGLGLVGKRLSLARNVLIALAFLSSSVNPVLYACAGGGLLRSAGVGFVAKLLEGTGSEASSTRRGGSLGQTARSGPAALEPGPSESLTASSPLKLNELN", "experiment": "Inhibition of LTB4R"}, "[13]": {"molecular_target": "T4, Glucocorticoid receptor (Homo sapiens) (UniProt P04150)", "T4 sequence (whole entry)": "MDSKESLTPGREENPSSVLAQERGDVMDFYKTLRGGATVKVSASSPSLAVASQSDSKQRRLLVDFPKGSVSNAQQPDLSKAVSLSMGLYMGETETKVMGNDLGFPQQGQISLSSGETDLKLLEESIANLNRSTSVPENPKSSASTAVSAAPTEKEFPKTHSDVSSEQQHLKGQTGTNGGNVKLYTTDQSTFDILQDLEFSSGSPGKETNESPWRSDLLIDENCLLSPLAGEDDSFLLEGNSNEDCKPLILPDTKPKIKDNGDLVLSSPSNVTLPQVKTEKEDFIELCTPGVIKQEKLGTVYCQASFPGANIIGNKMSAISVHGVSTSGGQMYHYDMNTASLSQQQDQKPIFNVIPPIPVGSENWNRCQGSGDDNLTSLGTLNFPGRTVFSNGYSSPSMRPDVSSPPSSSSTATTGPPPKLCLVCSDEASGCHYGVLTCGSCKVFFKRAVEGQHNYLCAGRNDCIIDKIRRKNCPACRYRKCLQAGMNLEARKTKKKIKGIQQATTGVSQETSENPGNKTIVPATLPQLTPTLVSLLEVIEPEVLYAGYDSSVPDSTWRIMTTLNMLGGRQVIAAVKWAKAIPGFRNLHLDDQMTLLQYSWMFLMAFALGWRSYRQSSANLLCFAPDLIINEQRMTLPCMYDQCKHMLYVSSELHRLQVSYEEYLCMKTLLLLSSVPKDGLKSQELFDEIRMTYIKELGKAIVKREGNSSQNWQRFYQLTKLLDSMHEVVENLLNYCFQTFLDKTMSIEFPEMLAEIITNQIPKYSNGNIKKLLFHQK", "experiment": "Inhibition of NR3C1"}, "[14]": {"molecular_target": "Stromelysin-1 (Homo sapiens) (UniProt P08254)", "sequence (P08254 100-477 limits assumed)": "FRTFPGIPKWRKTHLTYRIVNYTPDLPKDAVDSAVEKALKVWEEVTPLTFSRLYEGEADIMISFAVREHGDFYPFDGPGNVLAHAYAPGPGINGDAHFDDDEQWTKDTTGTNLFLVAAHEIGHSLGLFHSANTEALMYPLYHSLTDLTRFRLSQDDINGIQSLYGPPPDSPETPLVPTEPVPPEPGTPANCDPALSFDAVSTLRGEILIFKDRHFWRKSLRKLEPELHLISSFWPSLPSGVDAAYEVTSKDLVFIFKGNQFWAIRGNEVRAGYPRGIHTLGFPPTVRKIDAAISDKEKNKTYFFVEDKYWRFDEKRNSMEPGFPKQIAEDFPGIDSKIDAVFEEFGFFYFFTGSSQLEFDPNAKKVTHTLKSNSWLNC", "experiment": "Inhibition of MMP3"}, "[15]": {"molecular_target": "Muscarinic acetylcholine receptor M3 (Homo sapiens) (UniProt P20309)", "sequence (P20309 whole entry, looked up)": "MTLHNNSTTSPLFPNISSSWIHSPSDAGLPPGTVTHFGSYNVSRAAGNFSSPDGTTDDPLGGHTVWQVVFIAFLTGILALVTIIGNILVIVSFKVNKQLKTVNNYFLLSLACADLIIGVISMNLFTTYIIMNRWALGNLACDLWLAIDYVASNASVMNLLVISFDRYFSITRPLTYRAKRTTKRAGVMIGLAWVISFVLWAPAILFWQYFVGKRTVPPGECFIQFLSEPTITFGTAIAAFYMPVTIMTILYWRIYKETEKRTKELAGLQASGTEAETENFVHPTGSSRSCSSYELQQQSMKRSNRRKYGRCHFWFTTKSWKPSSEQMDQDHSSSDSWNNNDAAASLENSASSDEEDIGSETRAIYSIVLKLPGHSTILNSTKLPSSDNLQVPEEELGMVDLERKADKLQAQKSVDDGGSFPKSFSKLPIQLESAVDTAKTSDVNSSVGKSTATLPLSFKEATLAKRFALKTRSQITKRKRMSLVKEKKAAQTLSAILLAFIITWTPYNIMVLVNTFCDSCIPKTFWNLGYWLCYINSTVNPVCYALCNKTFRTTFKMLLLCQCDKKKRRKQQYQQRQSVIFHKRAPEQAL", "experiment": "Inhibition of CHRM3"}, "[16]": {"molecular_target": "Metabotropic glutamate receptor 2 (Homo sapiens) (UniProt Q14416)", "experiment": "Inhibition of GRM2"}, "[17]": {"molecular_target": "Cathepsin B (Homo sapiens) (UniProt P07858)", "experiment": "Inhibition of CTSB"}}}
{"smiles": "CC(C)CC[C@@H](O)C(CC1CCCCC1)NC(=O)C(C)NC(=O)C(Cc1ccccc1)NC(=O)OC(C)(C)C", "note": "(some centres undefined)", "values": [{"measurement": "Activity", "setting": "[1]", "result": 200, "unit": "nM"}]}
{"smiles": "COc1ccc(NC(=O)C(CS)Cc2ccccc2)cc1", "note": "(centres undefined)", "values": [{"measurement": "Activity", "setting": "[2]", "result": 26, "unit": "nM"}]}
{"smiles": "O=C(Nc1ccccc1)NC1CC(C(=O)O)Nc2cc(Cl)cc(Cl)c21", "note": "(centres undefined)", "values": [{"measurement": "Activity", "setting": "[3]", "result": 2, "unit": "nM"}]}
{"smiles": "Cn1c(C(=O)Nc2ccccc2C(=O)NC(Cc2ccccc2)C(=O)O)cc2ccccc21", "note": "(centres undefined)", "values": [{"measurement": "Activity", "setting": "[4]", "result": 350, "unit": "nM"}]}
{"smiles": "O=C(Nc1ncc([N+](=O)[O-])s1)C(c1ccccc1)c1ccccc1", "values": [{"measurement": "Activity", "setting": "[5]", "result": 250, "unit": "nM"}]}
{"smiles": "CC(C)(C)OC(=O)NC(C(=O)N1CCC[C@H]1C(=O)NCC1CCC(N)CC1)c1ccccc1", "note": "(some centres undefined)", "values": [{"measurement": "Activity", "setting": "[6]", "result": 6.8, "unit": "nM"}]}
{"smiles": "CCCC1(C(=O)Nc2cccc(F)c2)CCc2c(c3ccccc3n2CC(=O)O)C1", "note": "(centres undefined)", "values": [{"measurement": "Activity", "setting": "[7]", "result": 22, "unit": "nM"}]}
{"smiles": "CC(C)C[C@H](NC(=O)[C@@H](C)NC(=O)[C@@H](Cc1ccccc1)NC(=O)OC(C)(C)C)C(O)CSC(C)C", "note": "(single isomer, unassigned)", "values": [{"measurement": "Activity", "setting": "[1]", "result": 700, "unit": "nM"}]}
{"smiles": "CN1CC[C@H](c2ccc(Cl)cc2)[C@H](CSCC(=O)NCCc2ccccc2)C1", "values": [{"measurement": "Activity", "setting": "[8]", "result": 23, "unit": "nM"}]}
{"smiles": "Fc1ccc(CNc2nccc(-c3c(-c4ccc(F)cc4)nc4occn34)n2)cc1", "values": [{"measurement": "Activity", "setting": "[9]", "result": 90.9, "unit": "nM"}]}
{"smiles": "COc1ccc(NC(=O)NC2N=C(c3ccccc3)c3ccccc3N(C)C2=O)cc1", "note": "(centres undefined)", "values": [{"measurement": "Activity", "setting": "[4]", "result": 165, "unit": "nM"}]}
{"smiles": "O=C(O)Cc1nn(CC(=O)Nc2cccc(F)c2)c(=O)c2ccccc12", "values": [{"measurement": "Activity", "setting": "[10]", "result": 22, "unit": "nM"}]}
{"smiles": "COC(=O)N[C@H](C(=O)N(C)[C@@H](CN1CCCC1)c1ccccc1)c1ccccc1", "values": [{"measurement": "Activity", "setting": "[11]", "result": 178, "unit": "nM"}]}
{"smiles": "O=C(O)C(Cc1ccccc1)NC(=O)[C@H](Cc1ccc2c(c1)oc1ccccc12)NCP(=O)(O)O", "note": "(some centres undefined)", "values": [{"measurement": "Activity", "setting": "[2]", "result": 12, "unit": "nM"}]}
{"smiles": "C=CCN(CC(=O)OCC)C(=O)/C(C)=C/c1ccc(C(=O)Nc2ccc(C(=N)N)cc2)cc1", "values": [{"measurement": "Activity", "setting": "[12]", "result": 65, "unit": "nM"}]}
{"smiles": "C[C@@]12Cc3cnn(-c4ccc(F)cc4)c3C=C1CC[C@H]1C2=CC[C@H](C(F)(F)F)[C@H]1NCc1ccc(F)cc1", "values": [{"measurement": "Activity", "setting": "[13]", "result": 3, "unit": "nM"}]}
{"smiles": "O=C(C[C@H](CCCc1ccc(Cl)cc1)C(=O)N[C@@H](CC1CCCCC1)C(=O)NCCc1ccccc1)NO", "values": [{"measurement": "Activity", "setting": "[14]", "result": 7.31, "unit": "nM"}]}
{"smiles": "CC(C)=CCCN1CCC(NC(=O)[C@@](O)(c2ccccc2)[C@H]2CCC(NC(=O)OCc3ccccc3)C2)CC1", "note": "(some centres undefined)", "values": [{"measurement": "Activity", "setting": "[15]", "result": 5.2, "unit": "nM"}]}
{"smiles": "N[C@@H](C(=O)O)[C@H]1[C@H](CNC(=O)Nc2ccccc2)[C@H]1C(=O)O", "values": [{"measurement": "Activity", "setting": "[16]", "result": 530, "unit": "nM"}]}
{"smiles": "CCOC(=O)CN(c1cc(C)cc(OCCc2ccc(C(=N)N)cc2)c1)S(=O)(=O)c1ccccc1Cl", "values": [{"measurement": "Activity", "setting": "[6]", "result": 300, "unit": "nM"}]}
{"smiles": "CC(C)(C)OC(=O)N[C@@H](Cc1ccccc1)C(=O)N1CCN(C(c2ccc(F)cc2)c2ccc(F)cc2)CC1", "values": [{"measurement": "Activity", "setting": "[5]", "result": 250, "unit": "nM"}]}
{"smiles": "CCc1cc(-c2ccn[nH]2)c(O)cc1OCCCOc1ccc(CC(=O)O)cc1", "values": [{"measurement": "Activity", "setting": "[12]", "result": 54, "unit": "nM"}]}
{"smiles": "Cc1cccc(C[C@@H](NC(=O)C(c2ccccc2)c2ccccc2)C(=O)N[C@@H](C#N)COCc2ccccc2)c1", "values": [{"measurement": "Activity", "setting": "[17]", "result": 10.2, "unit": "nM"}]}
{"smiles": "O=C(CCC(NS(=O)(=O)c1ccc2oc3ccccc3c2c1)C(=O)O)NCCc1ccccc1", "note": "(centres undefined)", "values": [{"measurement": "Activity", "setting": "[14]", "result": 325, "unit": "nM"}]}
